Experiment [1] has as its target T1, juvenile hormone hemolymph carrier protein of H. virescens (Heliothis virescens, UniProt Q25175).
T1 sequence (Q25175 19-242): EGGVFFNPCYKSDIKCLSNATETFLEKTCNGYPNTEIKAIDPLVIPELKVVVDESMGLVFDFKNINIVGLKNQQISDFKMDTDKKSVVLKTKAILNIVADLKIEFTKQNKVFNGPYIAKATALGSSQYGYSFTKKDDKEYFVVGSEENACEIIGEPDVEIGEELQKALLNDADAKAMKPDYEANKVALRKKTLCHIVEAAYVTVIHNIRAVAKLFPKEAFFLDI
The experiment in a line: Binding of juvenile hormone by the hemolymph carrier protein. Conditions: juvenile hormone bound by the carrier protein; for H. virescens.

Experiment [2] addresses T2, juvenile hormone esterase (JHE) of Heliothis virescens, wild type (Heliothis virescens, UniProt P12992).
T2 sequence (P12992 20-564): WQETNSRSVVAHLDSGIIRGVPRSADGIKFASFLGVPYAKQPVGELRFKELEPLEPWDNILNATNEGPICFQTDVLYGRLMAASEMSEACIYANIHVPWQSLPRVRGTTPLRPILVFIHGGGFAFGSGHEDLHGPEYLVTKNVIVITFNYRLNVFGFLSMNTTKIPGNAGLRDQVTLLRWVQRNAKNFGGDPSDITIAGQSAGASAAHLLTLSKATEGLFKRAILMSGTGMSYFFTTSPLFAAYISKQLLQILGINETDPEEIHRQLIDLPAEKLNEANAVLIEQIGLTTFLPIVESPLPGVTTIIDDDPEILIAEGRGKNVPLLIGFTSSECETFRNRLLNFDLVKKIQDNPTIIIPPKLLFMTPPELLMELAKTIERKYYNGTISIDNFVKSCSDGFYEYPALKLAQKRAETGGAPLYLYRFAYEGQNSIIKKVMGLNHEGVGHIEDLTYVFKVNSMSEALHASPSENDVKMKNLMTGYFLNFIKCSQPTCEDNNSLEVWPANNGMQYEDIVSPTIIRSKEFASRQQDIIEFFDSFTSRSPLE
In words: Kinetics of juvenile hormone hydrolysis by juvenile hormone esterase. The format is biochemical.

On to juvenile hormone, for which the Kd (usually the free concentration of one partner at which half of the binding sites on the other are occupied at equilibrium, for simple one-to-one binding) in experiment [1] came out at 610 nM. Further, the kCAT/KM ratio in experiment [2] (substrate JH, JHE of H. virescens and of several other species) is given as > 10^8. In addition, the Michaelis constant (Km) – broadly, the substrate concentration at which the rate is half of its maximum – in experiment [2] (substrate juvenile hormone) was determined as 0.06 µM.

Source of the values: US5643776A, “Insect diagnostic and control compositions” (The Regents of the University of California, priority 1992, dated 1997).
